From US10960018B2, “Methods and compounds for stimulating read-through of premature termination codons” (The UAB Research Foundation, priority 2016, dated 2021)

Tests used:
Assay type in all cases: cell-based, Rat
FRT W1282X cells = assay: Transepithelial chloride conductance assay in FRT W1282X cells; conditions: 48 hours; escin 10 μM, G418 250 μg/ml, VX-770 10 μM, VX-809 6 μM, NMDI-14 20 μg/ml, tobramycin 150, gentamicin 250 μg/ml
Protocol: (§1) Stably transfected FRT cells as described herein cells were seeded onto Costar 24-well […] permeable supports at a density of ˜2×10^6 cells/filter and maintained at 37° C. with 5% CO2. Transepithelial resistance was assessed using an epithelial voltmeter to ensure the formation of tight monolayers, as defined by resistance >6 kcm^2. During initial evaluation of agents, cells were treated with compounds (10 μM), vehicle control (0.3% DMSO), or positive control (250 μg/mL G418) for 48 hours before transepithelial conductance (Gt) was assessed; subsequent studies used other concentrations of compounds. Measurements were taken at baseline, after the addition of 20 μM forskolin (FSK, a cAMP agonist that stimulates CFTR activity) and 10 μM CFTRInh-172 (a CFTR-specific inhibitor).
Individual assays were performed as described herein.
As previously reported in the literature, the combination of CFTR correctors (such as VX-809) and CFTR potentiators (such as VX-770) act synergistically to improve CFTR function. […] Compounds alone or in the indicated combination were pre-incubated with FRT W1282X cells for 48 hours. During the assay the baseline conductance (Gt) was initially determined prior to the acute addition of forskolin (20 μM) and VX-770 (10 μM) to stimulate CFTR activity; the CFTR inhibitor, CFTRInh-172 (10 μM), was added to inhibit CFTR activity at the end of the assay. Enhancement of PTC read-through by the compounds of the present disclosure was determined by an increase in CFTR conductance. CFTR conductance also indicated the CFTR was functional as a result of the read-through of the PTC.
Compounds alone or in the indicated combination were pre-incubated with FRT G542X cells for 48 hours. […] Enhancement of PTC read-through by the compounds of the present disclosure was determined by an increase in CFTR conductance. CFTR conductance also indicated the CFTR was functional as a result of the read-through of the PTC.
It has been reported that aminoglycosides interfere with the action read-through stimulating compound. […] CFTR conductance also indicated the CFTR was functional as a result of the read-through of the PTC.
Stimulation of CFTR activity was determined by an increase in CFTR conductance. […] During the assay the baseline conductance (Gt) was initially determined prior to the acute addition of forskolin (20 μM) and GP-5 (10 μM) to stimulate CFTR activity; the CFTR inhibitor, […] (10 μM), was added to inhibit CFTR activity at the end of the assay.
The effect of the read-through stimulating compounds of the present disclosure in combination with the CFTR corrector VX-809 was further examined in FRT cells with the G542X, Y122X and W1282X mutations. […] CFTR conductance also indicated the CFTR was functional as a result of the read-through of the PTC.

[1] = system: FRT wild-type CFTR control cells; assay: Firefly luciferase reporter assay, wild-type control; conditions: 300 to 500 μg/ml, 24 hours
Protocol: The luciferase assay was performed on a Pharmakon 1600 library to determine the efficacy of each compound in promoting read-through. 5 ul of each compound as a DMSO stock solution were dissolved in F-12 Ham medium and dispensed into separate wells of 384-well plates (Corning) using a BioMek FX. FRT cells (10,000 cells/well) containing the reporter gene construct (QXN UGAC) were then added using the Matrix WellMate. The plates were incubated for 24 hours at 37° C., 5% CO2, and 95% humidity, after which firefly luciferase activity was determined by equilibrating the plates to room temperature, adding an equal volume of Promega BrightGlo (Promega), and reading enhanced luminescence with an Envision Plate Reader (PerkinElmer) within 5 minutes. […]
To validate these cell lines, the cell lines were treated with G418, a read-through agent with established efficacy in vitro (Bedwell D M, et al.; Nat Med; 3:1280-1284; 1997), at doses up to from 300 to 500 μg/ml. An increase in luciferase activity indicates G418 stimulated read-through of the PTC in the constructs tested. […] For screening purposes, firefly luciferase levels were measured without assessment of Renilla expression as an indication of total construct expression.

FRT G542X cells = assay: Transepithelial chloride conductance (TECC) assay in FRT G542X cells
Protocol: as §1
In the TECC assay, FRT G542X cells were treated with a single dose (10 μM) of each compound. FRT G542X cells were incubated for 48 hours with the compounds prior or vehicle control (0.3% DMSO). During the assay the baseline conductance (Gt) was initially determined prior to the acute addition of forskolin (20 μM) and VX-770 (10 μM) to stimulate CFTR activity; the CFTR inhibitor, CFTRInh-172 (10 μM), was added to inhibit CFTR activity at the end of the assay. In these experiments, an increase in CFTR conductance indicates the compounds stimulated read-through of the PTC in the constructs tested and that the CFTR was functional.
To prioritize which of the 48 read-through-positive compounds identified would be most efficacious in augmenting PTC read-through and restoring protein function, the TECC assay was repeated (in triplicate) using FRT G542X cells and FRT cells without CFTR (parental cells). Compounds (10 μM) or vehicle control (0.3% DMSO) were incubated for 48 hours with the cells. During the assay the baseline conductance (Gt) was initially determined prior to the acute addition of forskolin (20 μM) and VX-770 (10 μM) to stimulate CFTR activity; the CFTR inhibitor, CFTRInh-172 (10 μM), was added to inhibit CFTR activity at the end of the assay. G418 (250 μg/ml) was used as a positive control. In this assay, an increase in CFTR conductance indicates the compound stimulated read-through of the PTC in the constructs tested and that the CFTR was functional. The 48 compounds tested are provided in the Table 1 below (with the numerical designations corresponding to those shown in FIG. 4).
A series of functional assays was performed to evaluate the efficacy of these lead compounds in greater detail. Using FRT G542X cells, the optimal dose of each compound in augmenting chloride conductance (FIG. 5A) was determined. FRT G542X cells were incubated with compound (1 μM to 30 μM), G418 (250 μg/mL) or vehicle control (0.3% DMSO) for 48 hours. The conductance assay was conducted as described in Example 2 above. In this assay, an increase in CFTR conductance indicates the compounds stimulated read-through of the PTC in the constructs tested and that the CFTR was functional.

Compound: NC[C@H]1O[C@H](O[C@H]2[C@H](O)[C@@H](O[C@H]3O[C@H](CO)[C@@H](O)[C@H](N)[C@H]3O)[C@H](N)C[C@@H]2N)[C@H](N)C[C@@H]1O [tobramycin]
- CFTR function (conductance) in presence of forskolin and VX-770 (FRT W1282X cells): did not stimulate CFTR function

Compound: CN[C@@H]1[C@@H](O)[C@@H](O[C@@H]2[C@@H](O)[C@H](O[C@H]3O[C@H]([C@@H](C)O)[C@@H](O)[C@H](O)[C@H]3N)[C@@H](N)C[C@H]2N)OC[C@]1(C)O [G418, geneticin]
- firefly luciferase activity compared to DMSO-treated vehicle [1]: no significant effect
- incubation time of maximal effect on forskolin-induced conductance (FRT G542X cells; 250 μg/ml, 0 to 72 hours): 72 h
- signal intensity at 48 hrs pre-incubation (FRT G542X cells; 250 μg/ml, relative to maximal effect at 72 hrs): > 75%

Compound: gentamicin
- CFTR function (conductance) in presence of forskolin and VX-770 (FRT W1282X cells): did not stimulate CFTR function

Compound: CCOC(=O)c1c(NC(=O)CC2Nc3cc(C)c(C)cc3NC2=O)sc(C)c1C (stereo not shown) [NMDI-14]
- CFTR function (conductance) in presence of VX-770 and forskolin (FRT G542X cells; 48 hours, escin 10 μM, NMDI-1 80 μg/ml, NMDI-14 20 μg/ml): significantly increased
- CFTR function (conductance) in presence of forskolin and VX-770 (FRT W1282X cells): significantly increased
